≈ marks a conversion by molar mass, not a printed value. Square brackets hold non-standard residues; d marks the D form. Peptide text beside a SMILES is read from it.
Key:
[1] = test system: MDR A. baumannii; experiment: Killing kinetics in the SEM sample; assay type: cell-based, Acinetobacter baumannii; conditions: 2 × 10^8 cfu/ml, x1 MIC, PBS, after 4 hours
Method: (§1) FE-SEM was used to observe peptide-induced changes in bacterial morphology. MDR A. baumannii (ATCC BAA-1605) and MDR S. aureus (KCCM 40510) were cultured in CAMHB to log phase and washed in PBS. Bacteria and peptides were diluted in PBS, after which aliquots of bacteria (50 μl) and peptides (50 μl) were mixed to yield the following final concentrations: MDR A. baumannii or MDR S. aureus, 2 × 10^8 CFU/ml; WCopW29, 2.5 μM. Mixtures were deposited onto cover glass slips and incubated for 0 min, 15 min, 30 min, 1 h or 4 h. After incubation, the bacteria were fixed with paraformaldehyde (4%) and osmium tetroxide (1%) (Sigma, Darmstadt, Germany), washed with water, and freeze-dried overnight. Freeze-dried samples were Pt-coated and placed in an S-4700, EMAX System field emission scanning electron microscope (Hitachi, Tokyo, Japan). Bacterial morphologies were imaged and recorded on video at magnifications of 10,000× and 25,000×.
(§2) Antimicrobial kinetics for each peptide and each bacterial strain were assessed using FE-SEM. […] Each experiment was performed in triplicate.

[2] = test system: A. baumannii (KCCM 40203) and S. aureus (KCTC 1621); conditions: MIC and sub-MIC exposure for 30 days (30 passages)
Text: (§3) A. baumannii (KCCM 40203) and S. aureus (KCTC 1621) were selected as drug-sensitive bacteria. Mutation-susceptible tetracycline (an antibiotic that targets ribosomes) (Sigma, Darmstadt, Germany) and ofloxacin (an antibiotic that targets DNA gyrase) (Sigma, Darmstadt, Germany), mutation-resistant colistin (an antibiotic that targets lipopolysaccharide) (Sigma, Darmstadt, Germany) and vancomycin (an antibiotic that targets peptidoglycan pentapeptide) (Sigma, Darmstadt, Germany) were used as control antibiotics. The MIC for each antibiotic against bacteria (at OD 0.01) was measured. […] The MIC for each passage was confirmed by additional broth microdilutions under CLSI guidelines. Resistance acquisition was induced for 30 days (30 passages), and each MIC value was confirmed by an independent MIC test against bacteria at each passage.

[3] = test system: A. baumannii KCCM 40203; experiment: microbe, parasite or virus in culture; conditions: bacteria OD 0.01, CAMHB
Method: (§4) To assess antimicrobial activity, the MIC50 and MIC90 were measured using broth microdilution following CLSI guidelines. […] Each experiment was performed in triplicate. Meropenem (Sigma, Darmstadt, Germany) and colistin were used as control antibiotics. Cation-adjusted Mueller–Hinton broth (CAMHB) (Becton, Dickinson and Company, Franklin Lakes, USA) with supplied calcium (50 mg/L) and magnesium (10 mg/L) was used for the CLSI-test condition. Bacteria in midlog phase and peptides were separately diluted in CAMHB. The bacteria and peptide solutions were then mixed in 96-well polyethylene plates (SPL, Gyeonggi-do, Korea) and incubated for 18 h at 37 °C. The final concentration for bacteria was 5 × 10^5 CFU/ml. […] The MIC was defined to be the lowest concentration of peptide without visible turbidity by comparing with control antibiotics with the unaided eye. […] Each experiment was performed in triplicate. MICs in albumin and acetic acid solutions were measured using the same protocol but with 0.2% bovine serum albumin (Bovogen, Keilor, Australia), 0.01% acetic acid (Merck, New Jersey, USA), and CAMHB with both calcium and magnesium. In addition, MICs used in the antibiotic resistance acquisition test, the outer–inner membrane permeation test, and the transmembrane potential test and for FE-SEM were individually determined. The final bacterial concentrations used were as follows: for resistance acquisition, optical density (OD) 0.01; for outer–inner membrane permeability assays (LB), OD 0.1; for the transmembrane potential test, 1 × 10^8 CFU/ml (OD 0.171); […]. Inhibitory activity unidentifiable by direct observation was determined by counting the CFUs. Each experiment was performed at least twice.
as §3

[4] = test system: MDR S. aureus; experiment: Killing kinetics in the SEM sample; assay type: cell-based, Staphylococcus aureus; conditions: 2 × 10^8 cfu/ml, x1 MIC, PBS, after 4 hours
Method: as §1, §2

[5] = test system: E. aerogenes NCCP 16285; experiment: microbe, parasite or virus in culture
Method: as §4

[6] = test system: colistin-resistant A. baumannii; experiment: In vivo activity, survival of infected mice; conditions: mouse model infected with colistin-resistant A. baumannii
Method: (§5) Female BALB/c mice (8-week old; n = 10) were purchased from orientbio (Gyeonggido, Republic of Korea) and fed under standardized environmental conditions for 1 week to be used to estimate time-dependent mouse survival rates. After inducing neutropenia by intraperitoneal injection of cyclophosphamide (150 mg/kg; Sigma), MDR S. aureus (KCCM 40510), MDR A. baumannii (colistin-resistant strain) or MDR K. pneumonia (colistin-resistant strain, NCCP 16125) was diluted in PBS and subcutaneously injected into mice (S. aureus, 1.5 × 10^8 CFU/ml; A. baumannii, 1 × 10^8 CFU/ml; K. pneumonia, 1 × 10^9 CFU/ml). After bacterial infection, 100 μl of WCopW43 peptide dissolved in distilled water (10 mg/ml) were injected (50 mg/kg) into each infected site, and survival was monitored every 12 h for 7 days. For A. baumannii infection, mice were intraperitoneally injected with mucin ([…], 1% in PBS, 300 μl) to suppress macrophages, and A. baumannii cells were incubated with mucin (1% in PBS) for 3 h before subcutaneous injection of 2 × 10^8 CFU/ml (0.2% mucin in PBS)[71]–[74]. Survival rates were calculated using the formula: 100% × (number of surviving mice/ten mice). One day after WCopW43 (50 mg/kg) injection, four mice were randomly selected and sacrificed by CO2 inhalation. […] Homogenized samples were spread onto MH agar plates, and CFU values were determined after incubation overnight at 37 °C.

[7] = test system: K. pneumonia strains; experiment: microbe, parasite or virus in culture
[8] = test system: MDR A. baumannii, MDR S. aureus or MDR K. pneumonia; experiment: In vivo activity, subcutaneously infected mice; parameters: species or system BALB/c mice
Method: as §5

## CC[C@@H](C)[C@@H](NC(=O)[C@@H](Cc1c[nH]c2ccccc12)NC(=O)[C@H](NC(=O)[C@@H](CC(C)C)NC(=O)[C@H](N)Cc1c[nH]c2ccccc12)C(C)C)C(=O)N[C@H](Cc1c[nH]c2ccccc12)C(=O)N[C@H](CCCNC(=N)N)C(=O)N[C@H](CCCNC(=N)N)C(=O)N[C@H](CCCNC(=N)N)C(N)=O [WCopW29] (H-[dW][dL][dV][dW][dI][dW][dR][dR][dR]-NH2)
[1]
  Loss of colony forming: 99%
[2]
  MIC during resistance acquisition: stable over a period of 30 days
[3]
  MIC at resistance induction condition, A. baumannii KCCM 40203: 1.25 µM (≈ 1.71 µg/mL)
[4]
  Loss of colony forming: 90%

## CC[C@@H](C)[C@@H](NC(=O)[C@@H](Cc1c[nH]c2ccccc12)NC(=O)[C@@H](CCCNC(=N)N)NC(=O)[C@@H](CCCNC(=N)N)NC(=O)[C@H](N)CCCNC(=N)N)C(=O)N[C@H](Cc1c[nH]c2ccccc12)C(=O)N[C@@H](C(=O)N[C@@H](C(=O)N[C@H](Cc1c[nH]c2ccccc12)C(=O)N[C@H](CCCCN)C(N)=O)[C@H](C)CC)C(C)C [WCopW43] (H-[dR][dR][dR][dW][dI][dW][dV][dI][dW][dK]-NH2)
[5]; NCCP 16285, 18 h
  MIC, E. aerogenes NCCP 16285: 1.25 µM (≈ 1.87 µg/mL)
[2]
  MIC during resistance acquisition: emergence of WCopW43 resistance is suppressed
[6]
  Survival rate: 100%
[7]; 18 h
  MIC, K. pneumonia NCCP 15782: 1.25 µM (≈ 1.87 µg/mL)
  MIC, K. pneumonia NCCP 15864: 1.25 µM (≈ 1.87 µg/mL)
  MIC, K. pneumonia NCCP 15866: 2.5 µM (≈ 3.74 µg/mL)
  MIC, K. pneumonia NCCP 16052: 2.5 µM (≈ 3.74 µg/mL)
  MIC, K. pneumonia NCCP 16124: 1.25 µM (≈ 1.87 µg/mL)
  MIC, K. pneumonia NCCP 16125: 2.5 µM (≈ 3.74 µg/mL)
  MIC, K. pneumonia NCCP 16128: 5 µM (≈ 7.49 µg/mL)
  MIC, K. pneumonia NCCP 16208: 1.25 µM (≈ 1.87 µg/mL)
  MIC, K. pneumonia NCCP 16212: 2.5 µM (≈ 3.74 µg/mL)
  MIC, K. pneumonia NCCP 16213: 1.25 µM (≈ 1.87 µg/mL)
[8]; WCopW43 50 mg/kg s.c. 1 h after infection, tissue CFU one day after infection, vs PBS
  Decrease of bacterial burden (CFU): ~ 90%
[8]; WCopW43 50 mg/kg s.c., neutropenic BALB/c mice, n = 10, 7 days
  Survival compared with PBS-injected mice: survived longer

## Colistin
[5]; MIC test, 5 x 10^5 cfu/ml, CAMHB
  MIC, E. aerogenes NCCP 16285: > 5 µM
[6]
  Survival rate: 90%
[3]
  MIC at resistance induction condition, A. baumannii KCCM 40203: 1.25 µM
[7]; CLSI
  MIC, K. pneumonia NCCP 15782: 1.25 µM
  MIC, K. pneumonia NCCP 15864: 0.63 µM
  MIC, K. pneumonia NCCP 15866: 0.63 µM
  MIC, K. pneumonia NCCP 16052: 0.63 µM
  MIC, K. pneumonia NCCP 16124: 20 µM
  MIC, K. pneumonia NCCP 16128: 5 µM
  MIC, K. pneumonia NCCP 16208: < 0.31 µM
  MIC, K. pneumonia NCCP 16212: < 0.31 µM
  MIC, K. pneumonia NCCP 16213: 0.63 µM

Reference: article PMC9643456, “Matching amino acids membrane preference profile to improve activity of antimicrobial peptides” (Communications Biology, 2022)
